Columns and labels:
Assay type in all cases: in vivo
barnyard grass [1] = assay: Herbicidal activity test against upland field weeds (soil treatment test); design: key to Soil treatment herbicidal activity, barnyard grass: 0 (no control); 100 (complete control); conditions: 50 g ai/ha, scale 0 (no control) to 100 (complete control)
Description: (§1) Experimental Example 2: Herbicidal Activity Test Against Upland Field Weeds (Soil Treatment Test) Soil treatment was performed as follows: After filling a square plastic pot having a surface area of 350 cm^2 with sandy loam mixed with 1 g per pot (350 cm^2) of horticultural mixed fertilizer (N:P:K=11:10:11), seeds (10˜15 grains) or rootstocks (2 pieces) of 5 kinds of grassy weeds of sorghum, barnyard grass, quack grass, crabgrass, fall panicum, and 5 kinds of broadleaf weeds of black nightshade, indian jointvetch, velvetleaf, cocklebur, bindweed, which had been stored in a low temperature (6° C.), were sown. The day after sowing, test compound solutions were made by diluting with a preparation solution (including 50% acetone, 0.1% Tween-20) so that the final treatment amount of the test compounds was 50 or 75 g a.i./ha. The prepared test compound solution was used for treating soil surface by hand-spraying 14 mL per pot in a fume hood. After the treatment, it was managed under the same greenhouse conditions (average temperature 30±5° C., light/dark=14/10 hours), and after 14 days (after 21 days if necessary), the external symptoms and efficacy were investigated according to the scale of 0 (no control) to 100 (complete control). The results of Table 8 were obtained by evaluating weed control value to the untreated control by conducting visual assessment.

sorghum [2] = assay: as above; design: key to Soil treatment herbicidal activity, Sorghum: 0 (no control); 100 (complete control); conditions: 50 g ai/ha, scale 0 (no control) to 100 (complete control)
Description: as §1

velvetleaf [3] = assay: Herbicidal activity test against upland field weeds (foliar treatment test); design: key to Foliar treatment herbicidal activity, velvet leaf: 0 (no control); 100 (complete control); conditions: 50 g ai/ha; for pest or weed control at 50 g/ha: Abutilon theophrasti, scale 0-100, read-out: Foliar treatment herbicidal activity, velvet leaf; for Foliar treatment herbicidal activity, velvet leaf: scale 0-100
Summary of the method: (§2)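 Weeds were raised from seed or rootstocks in horticultural soil in a greenhouse (30±5° C., 14/10 h light/dark), then foliage was hand-sprayed with compound at 50 or 75 g a.i./ha in 50% acetone with 0.1% Tween-20. Control was scored visually 0–100 against untreated plants after 14 days, or 21 if needed.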

quack grass [4] = assay: as above; design: key to Foliar treatment herbicidal activity, quack grass: 0 (no control); 100 (complete control); conditions: 50 g ai/ha, scale 0-100
Summary of the method: as §2

cocklebur [5] = assay: as above; conditions: 50 g ai/ha, scale 0-100; for pest or weed control at 50 g/ha: Xanthium strumarium
Summary of the method: as §2

velvetleaf [6] = assay: Herbicidal activity test against upland field weeds (soil treatment test); design: key to Soil treatment herbicidal activity, velvet leaf: 0 (no control); 100 (complete control); conditions: 50 g ai/ha, scale 0 (no control) to 100 (complete control)
Description: as §1

sorghum [7] = assay: Herbicidal activity test against upland field weeds (foliar treatment test); conditions: 50 g ai/ha, scale 0-100; for plant injury at 50 g/ha: Sorghum
Summary of the method: as §2

black nightshade [8] = assay: as above; design: key to Foliar treatment herbicidal activity, black nightshade: 0 (no control); 100 (complete control); conditions: 50 g ai/ha, scale 0-100
Summary of the method: as §2

barnyard grass [9] = assay: as above; conditions: 50 g ai/ha, scale 0-100; for pest or weed control at 50 g/ha: Echinochloa crus-galli
Summary of the method: as §2

fall panicum [10] = assay: as above; conditions: 50 g ai/ha, scale 0-100; for pest or weed control at 50 g/ha: Panicum dichotomiflorum
Summary of the method: as §2

fall panicum [11] = assay: Herbicidal activity test against upland field weeds (soil treatment test); design: key to Soil treatment herbicidal activity, Fall panicum: 0 (no control); 100 (complete control); conditions: 50 g ai/ha, scale 0 (no control) to 100 (complete control)
Description: as §1

indian jointvetch [12] = assay: Herbicidal activity test against upland field weeds (foliar treatment test); design: key to Foliar treatment herbicidal activity, Indian jointvetch: 0 (no control); 100 (complete control); conditions: 50 g ai/ha, scale 0-100
Summary of the method: as §2

black nightshade [13] = assay: Herbicidal activity test against upland field weeds (soil treatment test); design: key to Soil treatment herbicidal activity, black nightshade: 0 (no control); 100 (complete control); conditions: 50 g ai/ha, scale 0 (no control) to 100 (complete control); for pest or weed control at 50 g/ha: Solanum nigrum
Description: as §1

indian jointvetch [14] = assay: as above; design: key to Soil treatment herbicidal activity, Indian jointvetch: 0 (no control); 100 (complete control); conditions: 50 g ai/ha, scale 0 (no control) to 100 (complete control)
Description: as §1

cocklebur [15] = assay: as above; design: key to Soil treatment herbicidal activity, Cocklebur: 0 (no control); 100 (complete control); conditions: 50 g ai/ha, scale 0 (no control) to 100 (complete control)
Description: as §1

crabgrass [16] = assay: Herbicidal activity test against upland field weeds (foliar treatment test); design: key to Foliar treatment herbicidal activity, Crabgrass: 0 (no control); 100 (complete control); conditions: 50 g ai/ha, scale 0-100; for pest or weed control at 50 g/ha: Digitaria sanguinalis
Summary of the method: as §2

bindweed [17] = assay: as above; design: key to Foliar treatment herbicidal activity, Bindweed: 0 (no control); 100 (complete control); conditions: 50 g ai/ha, scale 0-100
Summary of the method: as §2

quack grass [18] = assay: Herbicidal activity test against upland field weeds (soil treatment test); design: key to Soil treatment herbicidal activity, quack grass: 0 (no control); 100 (complete control); conditions: 50 g ai/ha, scale 0 (no control) to 100 (complete control)
Description: as §1

crabgrass [19] = assay: as above; design: key to Soil treatment herbicidal activity, Crabgrass: 0 (no control); 100 (complete control); conditions: 50 g ai/ha, scale 0 (no control) to 100 (complete control)
Description: as §1

wheat = assay: Phytotoxicity test for upland field crops (foliar treatment test); design: key: 0 (no harm); 9 (complete withered)
Summary of the method: (§3)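 Application rate ranged 19˜300 g a.i./ha, delivered as a foliar spray (100 ml/m^2) in 33% acetone with 0.1% Tween-20 to crops raised at 30±5 °C under 14/10 h light/dark. Symptoms were assessed 7 and 14 days post-treatment, extending to 21 days where necessary, using a 0–9 injury grade relative to untreated control.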

corn = assay: as above; design: key: 0 (no harm); 9 (complete withered)
Summary of the method: as §3

bindweed [20] = assay: Herbicidal activity test against upland field weeds (soil treatment test); design: key to Soil treatment herbicidal activity, Bindweed: 0 (no control); 100 (complete control); conditions: 50 g ai/ha, scale 0 (no control) to 100 (complete control)
Description: as §1

[21] = 50 g ai/ha, Wheat (7 days after treatment)
[22] = 50 g ai/ha, Wheat (14 days after treatment)
[23] = 100 g ai/ha, Wheat (7 days after treatment)
[24] = 100 g ai/ha, Wheat (14 days after treatment)
[25] = 50 g ai/ha, Corn (7 days after treatment)
[26] = 50 g ai/ha, Corn (14 days after treatment)
[27] = 100 g ai/ha, Corn (7 days after treatment)
[28] = 100 g ai/ha, Corn (14 days after treatment)

| Compound | Soil treatment herbicidal activity, Sorghum (sorghum [2]) | pest or weed control at 50 g/ha (velvetleaf [3]) | Foliar treatment herbicidal activity, quack grass (quack grass [4]) | pest or weed control at 50 g/ha (cocklebur [5]) | Soil treatment herbicidal activity, velvet leaf (velvetleaf [6]) | plant injury at 50 g/ha (sorghum [7]) | pest or weed control at 50 g/ha (barnyard grass [9]) | pest or weed control at 50 g/ha (fall panicum [10]) | pest or weed control at 50 g/ha (indian jointvetch [12]) | Soil treatment herbicidal activity, black nightshade (black nightshade [13]) | Soil treatment herbicidal activity, Indian jointvetch (indian jointvetch [14]) | Soil treatment herbicidal activity, Cocklebur (cocklebur [15]) | pest or weed control at 50 g/ha (crabgrass [16]) | pest or weed control at 50 g/ha (bindweed [17]) | Soil treatment herbicidal activity, quack grass (quack grass [18]) | Soil treatment herbicidal activity, Crabgrass (crabgrass [19]) | Soil treatment herbicidal activity, barnyard grass (barnyard grass [1]) | Foliar treatment herbicidal activity, velvet leaf (velvetleaf [3]) | Foliar treatment herbicidal activity, black nightshade (black nightshade [8]) | pest or weed control at 50 g/ha (black nightshade [13]) | also measured |
| --- | --- | --- | --- | --- | --- | --- | --- | --- | --- | --- | --- | --- | --- | --- | --- | --- | --- | --- | --- | --- | --- |
| CON(Cc1nnn(C)n1)Cc1nc(C(F)F)ccc1C(=O)Nc1nnnn1C [Compound No. 2-86, 6-(difluoromethyl)-2-((methoxy((2-methyl-2H-tetrazol-5-yl)methyl)amino)methyl)-N-(1-methyl-1H-tetrazol-5-yl)nicotinamide] | 0 | 98% | 0 | 80% | 100 | 30% | 95% | 50% | 80% | 100 | 100 | 0 | 70% | 40% | 0 | 0 |  |  |  |  | pest or weed control at 50 g/ha (barnyard grass [1]; Echinochloa crus-galli): 98%; pest or weed control at 50 g/ha (black nightshade [8]; Solanum nigrum): 95%; pest or weed control at 50 g/ha (fall panicum [11]; Panicum dichotomiflorum): 20% |
| CSc1nc(COCc2nc(C(F)(F)F)ccc2C(=O)Nc2nnnn2C)nn1C [Compound No. 2-131, N-(1-methyl-1H-tetrazol-5-yl)-2-(((1-methyl-5-(methylthio)-1H-1,2,4-triazol-3-yl)methoxy)methyl)-6-(trifluoromethyl)nicotinamide] | 0 |  |  | 80% |  | 40% | 98% | 70% | 70% |  | 100 | 0 |  |  | 0 | 0 | 0 | 100 | 100 | 98% | pest or weed control at 50 g/ha (quack grass [4]): 10%; pest or weed control at 50 g/ha (velvetleaf [6]; Abutilon theophrasti, read-out: Soil treatment herbicidal activity, velvet leaf): 98%; Foliar treatment herbicidal activity, Crabgrass (crabgrass [16]): 100 |
| COC(=O)OC(C)N(C(=O)c1ccc(C(F)(F)F)nc1CSCc1nnn(C)n1)c1nnnn1C (stereo not drawn) [Compound No. 4-3, methyl(1-(N-(1-methyl-1H-tetrazol-5-yl)-2-((((2-methyl-2H-tetrazol-5-yl)methyl)thio)methyl)-6-(trifluoromethyl)nicotinamido)ethyl)carbonate] | 0 |  | 0 |  | 50 |  |  |  |  | 100 | 0 |  |  |  | 0 | 98 | 0 | 98 | 100 |  | Foliar treatment phytotoxicity, Wheat (wheat; [21]): 0; Foliar treatment phytotoxicity, Wheat (wheat; [22]): 0; Foliar treatment phytotoxicity, Wheat (wheat; [23]): 0; Foliar treatment phytotoxicity, Wheat (wheat; [24]): 0; Foliar treatment phytotoxicity, Corn (corn; [25]): 0; Foliar treatment phytotoxicity, Corn (corn; [26]): 0; Foliar treatment phytotoxicity, Corn (corn; [27]): 1; Foliar treatment phytotoxicity, Corn (corn; [28]): 0; Soil treatment herbicidal activity, Bindweed (bindweed [20]): 0; Foliar treatment herbicidal activity, Cocklebur (cocklebur [5]): 98; Foliar treatment herbicidal activity, Sorghum (sorghum [7]): 80; Foliar treatment herbicidal activity, barnyard grass (barnyard grass [9]): 98; Foliar treatment herbicidal activity, Fall panicum (fall panicum [10]): 80; Soil treatment herbicidal activity, Fall panicum (fall panicum [11]): 0; Foliar treatment herbicidal activity, Indian jointvetch (indian jointvetch [12]): 100; Foliar treatment herbicidal activity, Crabgrass (crabgrass [16]): 98; Foliar treatment herbicidal activity, Bindweed (bindweed [17]): 100 |
| Cn1nnc(CSCc2nc(C(F)(F)F)ccc2C(=S)Nc2nnnn2C)n1 [Compound No. 2-107, N-(1-methyl-1H-tetrazol-5-yl)-2-((((2-methyl-2H-tetrazol-5-yl)methyl)thio)methyl)-6-(trifluoromethyl)pyridin-3-carbothioamide] |  | 70% | 0 | 98% | 100 | 70% | 70% | 60% | 98% |  | 0 |  | 95% | 98% | 0 | 0 | 0 |  | 100 | 70% | plant injury at 50 g/ha (sorghum [2]; Sorghum): 20%; Foliar treatment phytotoxicity, Wheat (wheat; [21]): 3; Foliar treatment phytotoxicity, Wheat (wheat; [22]): 3; Foliar treatment phytotoxicity, Wheat (wheat; [23]): 4; Foliar treatment phytotoxicity, Wheat (wheat; [24]): 3; Foliar treatment phytotoxicity, Corn (corn; [25]): 1; Foliar treatment phytotoxicity, Corn (corn; [26]): 0; Foliar treatment phytotoxicity, Corn (corn; [27]): 0; Foliar treatment phytotoxicity, Corn (corn; [28]): 0; pest or weed control at 50 g/ha (bindweed [20]): 40%; Soil treatment herbicidal activity, Fall panicum (fall panicum [11]): 0 |
